Experimental data from patent US20030232747A1, “Method of identifying a pharmaceutically active compound for the treatment of a condition caused by altered expression of the insulin receptor” (priority 2002, published 2003).

Key:
[1] = Organ weights after castration and testosterone replacement in young rats; assay type: in vivo, rat
Protocol: Pellets for testosterone-or placebo-implantation were received from Innovative Research of America, Sarasota, Fla., USA. To evaluate the effects of castration and testosterone replacement male wistar rats (3 months, n=21) were divided into three groups: Group 1, intact (shame operated, given a placebo-pellet by implantation under the dorsal skin, n=7), group 2, castrated (implantation of placebo-pellet, n=7) and group 3, castrated, but given a testosterone-implantate of 15 mg (n=7). 3 weeks after treatment rats were killed and penile tissue as well as blood samples were treated as described in example 1. The experimental study was conducted in accordance with the general federal law on the care and use of laboratory animals.
It was noted that the level of testosterone in the serum of young versus old rats were 4.436±1.1 and 0.57±0.17 ng/ml (mean±SD, n=4) respectively, pointing to a drop in the level of testosterone in circulation of aged animals. This is in agreement with Zirkins lab (Zirkin et al., Exp. Gerontol. 32:529-537 (1997); Zirkin and Chen, Biol. Reprod. 63:977-981 (2000)). In order to discern if the observed ageing related alteration in the expression of two splice variants of insulin receptor mRNA could be due to a declining androgen level in the ageing rats, we have performed orchiedectomy on young rats. One group of castrated rats received androgen releasing subcutanous implant. […] The effect of castration and andorgen-replacement of the insulin receptor mRNA expression in penile tissue of young rats is presented in FIG. 4a. […] Following castration, the appearance of the smaller splice variant was observed, the pattern resembling the old animals.

[2] = tested on: insulin receptor mRNA splice variants Ex11+/Ex11-; experiment: RT-PCR and densitometric analysis of insulin receptor mRNA splice variants in penile tissue after castration and testosterone replacement; assay type: in vivo, rat
Protocol: Tissue samples (100-200 mg) were pulverized in liquid nitrogen. Total RNA was isolated using guanidium thocyanate, phenol-chloroform extraction (pecLab, Erlangen, Germany). The RNA was precipitated with isopropanol at −20° C. for 2 h, washed with 75% ethanol, dissolved in diethylpyrocarbonate water and quantified spectrometrically at 260 nm. The ratio of absorption of all preparations was between 1.8 and 2.0. To ensure that concentration was identical in each sample, the intensity of 28 sRNA was compared on an 1% agarose gelectrophoresis after ethidium bromide staining. Total RNA was stored at −80° C. until further use.
First strand cDNA synthesis was carried out using a commercially available kit (Gibco BRL). Briefly, 4 μg of total RNA was primed with 0,5 μg of oligo(dT)12-18 and incubated 10 min at 70° C. For each sample lx first strand puffer, 0,2M DTT, 10 mM dNTP's and 200U of Superscript II reverse transcriptase were added. Reverse transcription was performed at 42° C. for 50 min and stopped by heating for 15 min. at 70° C. The resulting cDNA templates were stored at −20° C. or directly used for PCR.
After a denaturation period of 3 min the PCR reaction was followed by 35 cycles of 95° C. for 60 sec., 60° C. for 60 sec. and 72° C. for 60 sec. PCR was performed with 6 μl cDNA, 10 mM of each dNTP, 5U Taq-Polymerase (Biotherm) and 50 pmol of both sense and antisense primers in PCR buffer. The final volume of each reaction was 50 μl. Reaction products (15 μl) were run on a 2.5% agarose gel. Primers used for PCR were: […]
Densitometric analysis of the insulin receptor mRNA splice variant levels was performed using the Image Quant 5.0 software.
For the proportion of the two insulin receptor variant mRNA levels, significance of the difference of the mean values was determined by unpaired student's t-test. The threshold for signigicance was set at p<0.05.
Pellets for testosterone-or placebo-implantation were received from Innovative Research of America, Sarasota, Fla., USA. […]

[3] = young (3 months) castrated male wistar rats, testosterone implant 15 mg, 3 weeks after treatment, n=7
[4] = young castrated rats with androgen supplementation (testosterone implant 15 mg), 3 weeks, FIG. 4b

C[C@]12CC[C@H]3[C@@H](CCC4=CC(=O)CC[C@@]43C)[C@@H]1CC[C@@H]2O [testosterone]
Penis weight in relation to body weight [1, 3]: 78.55 ± 5.54 mg/100 g body weight
Prostate weight in relation to body weight [1, 3]: 92.37 ± 33.89 mg/100 g body weight
Effect on castration-induced reduction of penis and prostate weight (in words) ([1]; young castrated rats, testosterone replacement): induced a reversal of this effect in both organs
Relative proportion of Ex11+ insulin receptor mRNA in penis [2, 4]: 22.8%
Relative proportion of Ex11- insulin receptor mRNA in penis [2, 4]: 77.2%
Appearance of the smaller insulin receptor splice variant (Ex11-) in penile tissue (in words) ([2]; young castrated rats with androgen supplementation, FIG. 4a): this isoform persisted
